Measured values as given in US20060100431A1, “Biologically active compounds” (Amura Therapeutics Limited, priority 2002, published 2006).

Columns and labels:
Format in all cases: biochemical
Bovine cathepsin S = target: T1, Bovine cathepsin S (Bos taurus, UniProt P25326); experiment: Cathepsin S peptidase activity assay, bovine enzyme (Ki); conditions: species of cathepsin S not given; read-out: Ki, inhibitors of cathepsin S
T1 construct: purchased CN Biosciences
Summary of the method: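 Bovine cathepsin S activity followed by fluorescence increase from substrate conversion to product over time, enzyme added to start the reaction, at 25±1° C. Buffer 10 mM bis-tris-propane pH 6.5 with 1 mM EDTA, 5 mM 2-mercaptoethanol, 1 mM CaCl2; DMSO kept below 1% (vol./vol.).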

Wild-type cruzipain = Wild-type cruzipain (Trypanosoma cruzi, UniProt P25779); experiment: Trypanosoma cruzi cruzipain peptidase activity assay (Ki); conditions: read-out: Ki, inhibitors of cruzain and cruzipains
Summary of the method: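 Native cruzipain from T. cruzi Dm28 epimastigotes, 2.5 nM, in 100 mM sodium phosphate pH 6.75 with 1 mM EDTA and 10 mM L-cysteine, 25 °C, DMSO <1%. Rates taken from continuous fluorogenic substrate read; Ki by regression assuming reversible pure-competitive inhibition.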

CPB2.8ΔCTE = target: T2, CPB2.8ΔCTE (Leishmania mexicana, UniProt P36400); experiment: Leishmania mexicana cysteine protease B (CPB) peptidase activity assay (Ki); conditions: Ki, inhibitors of Leismania mexicana CPB protease
T2 construct: Wild-type recombinant CPB without the C-terminal extention (i.e. CPB2.8ΔCTE); Dr. Jeremy Mottram (Wellcome Centre for Molecular Parasitology, University of Glasgow)
Summary of the method: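 Apparent Ki was derived by regression of activity against inhibitor concentration, assuming pure-competitive reversible binding. Reaction: 0.25 nM CPB lacking the C-terminal extension, pH 5.5 acetate buffer (1 mM EDTA, 200 mM NaCl, 10 mM DTT), 25 °C, followed by continuous substrate fluorescence.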

human cathepsin B = target: T3, human cathepsin B (Homo sapiens, UniProt P07858); experiment: Cathepsin B peptidase activity assay (Ki); conditions: read-out: Ki, inhibitors of cathepsin B
T3 construct: purchased CN Biosciences
Summary of the method: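 Buffer: 10 mM bis-tris-propane pH 6.5, 1 mM EDTA, 5 mM 2-mercaptoethanol, 1 mM CaCl2; DMSO <1%. Ki assumed reversible, pure-competitive, from Ki^app=Ki(1+[So]/KM^app) by non-linear regression.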

human cathepsin L = target: T4, human cathepsin L (Homo sapiens, UniProt P07711); experiment: Cathepsin L peptidase activity assay (Ki); conditions: read-out: Ki, inhibitors of cathepsin L
T4 construct: purchased CN Biosciences
Summary of the method: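 Run at 25±1° C with DMSO under 1%: buffer was 10 mM BTP pH 6.5 containing 1 mM EDTA, 1 mM CaCl2 and 5 mM 2-mercaptoethanol. Enzyme (1 nM cathepsin L) was added last to start hydrolysis of Ac-Phe-Arg-AMC held at KM^app (~20 μM), followed kinetically by fluorescence at 365/450 nm.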

Measured: Ki

T1 sequence (P25326 115-331): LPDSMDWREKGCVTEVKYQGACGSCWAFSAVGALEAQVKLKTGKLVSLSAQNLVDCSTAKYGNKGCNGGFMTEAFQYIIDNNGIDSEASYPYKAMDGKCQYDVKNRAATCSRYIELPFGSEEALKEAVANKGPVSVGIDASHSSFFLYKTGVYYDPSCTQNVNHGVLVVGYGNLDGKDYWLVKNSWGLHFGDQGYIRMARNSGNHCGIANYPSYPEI
T4 sequence (P07711 114-333): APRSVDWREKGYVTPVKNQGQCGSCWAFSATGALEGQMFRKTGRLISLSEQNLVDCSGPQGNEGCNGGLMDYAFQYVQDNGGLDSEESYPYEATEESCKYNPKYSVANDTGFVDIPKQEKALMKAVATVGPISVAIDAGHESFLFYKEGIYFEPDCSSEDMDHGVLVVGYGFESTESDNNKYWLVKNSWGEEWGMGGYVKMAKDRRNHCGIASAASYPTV
Wild-type cruzipain, sequence (P25779 whole entry): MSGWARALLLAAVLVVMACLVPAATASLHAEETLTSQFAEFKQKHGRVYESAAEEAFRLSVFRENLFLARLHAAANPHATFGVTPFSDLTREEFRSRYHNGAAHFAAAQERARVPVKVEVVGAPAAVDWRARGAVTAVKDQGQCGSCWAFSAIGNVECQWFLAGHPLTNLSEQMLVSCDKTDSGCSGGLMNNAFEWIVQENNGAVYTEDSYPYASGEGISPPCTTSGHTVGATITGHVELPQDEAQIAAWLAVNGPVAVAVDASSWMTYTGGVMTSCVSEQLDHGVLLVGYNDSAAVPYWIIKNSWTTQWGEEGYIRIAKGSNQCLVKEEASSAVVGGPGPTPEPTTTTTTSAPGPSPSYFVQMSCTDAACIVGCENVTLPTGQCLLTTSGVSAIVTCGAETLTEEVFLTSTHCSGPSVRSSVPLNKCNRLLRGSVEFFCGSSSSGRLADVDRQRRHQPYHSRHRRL
T2 sequence (P36400 126-343, stated change not applied): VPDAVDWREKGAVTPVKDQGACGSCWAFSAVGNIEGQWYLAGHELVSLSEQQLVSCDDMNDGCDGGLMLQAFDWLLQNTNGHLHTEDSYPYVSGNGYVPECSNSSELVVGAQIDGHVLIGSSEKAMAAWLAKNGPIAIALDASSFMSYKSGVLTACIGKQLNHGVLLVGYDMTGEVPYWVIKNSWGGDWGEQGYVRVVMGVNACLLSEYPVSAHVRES

O=C(N[C@@H](Cc1ccc(O)cc1)C(=O)N1CC[C@@H]2[C@H]1C(=O)CN2C(=O)c1csc2ccccc12)C(c1ccccc1)c1ccccc1 [Example 329, (3aR,6aS)-N-[(1S)-2-[4-(Benzo[b]thiophene-3-carbonyl)-6-oxo-hexahydro-pyrrolo[3,2-b]pyrrole-1-yl]-1-(4-hydroxy-benzyl)-2-oxo-ethyl]-2,2-diphenyl-acetamide]
not listed: human cathepsin L
< 5 µM: all other assays above

O=C(N[C@@H](Cc1cc(F)cc(F)c1)C(=O)N1CC[C@@H]2[C@H]1C(=O)CN2C(=O)c1csc2ccccc12)C(c1ccccc1)c1ccccc1 [Example 316, (3aR,6aS)-N-[(1S)-2-[4-(Benzo[b]thiophene-3-carbonyl)-6-oxo-hexahydro-pyrrolo[3,2-b]pyrrole-1-yl]-1-(3,5-difluoro-benzyl)-2-oxo-ethyl]-2,2-diphenyl-acetamide]
not listed: human cathepsin L
< 5 µM: all other assays above

O=C(N[C@@H](Cc1cccc(F)c1)C(=O)N1CC[C@@H]2[C@H]1C(=O)CN2C(=O)c1csc2ccccc12)C(c1ccccc1)c1ccccc1 [Example 315, (3aR,6aS)-N-[(1S)-2-[4-(Benzo[b]thiophene-3-carbonyl)-6-oxo-hexahydro-pyrrolo[3,2-b]pyrrole-1-yl]-1-(3-fluoro-benzyl)-2-oxo-ethyl]-2,2-diphenyl-acetamide]
not listed: human cathepsin L
< 5 µM: all other assays above

O=C(N[C@@H](Cc1ccc(O)cc1)C(=O)N1CC[C@@H]2[C@H]1C(=O)CN2C(=O)c1ccccc1)c1cccc(Br)c1 [Example 298, (3aR,6aS)-N-[(1S)-2-(4-Benzoyl-6-oxo-hexahydro-pyrrolo[3,2-b]pyrrol-1-yl)-1-(4-hydroxy-benzyl)-2-oxo-ethyl]-3-bromo-benzamide]
< 5 µM: Bovine cathepsin S | Wild-type cruzipain | human cathepsin B

Nc1ccc(C(=O)N2CC(=O)[C@@H]3[C@H]2CCN3C(=O)[C@H](Cc2ccc(O)cc2)NC(=O)c2cccc(Br)c2)cc1 [Example 310, (3aR,6aS)-N-[(1S)-2-[4-(4-Amino-benzoyl)-6-oxo-hexahydro-pyrrolo[3,2-b]pyrrole-1-yl]-1-(4-hydroxy-benzyl)-2-oxo-ethyl]-3-bromo-benzamide]
< 5 µM: Bovine cathepsin S | human cathepsin B

CC(C)C[C@H](NC(=O)c1ccc(Oc2ccccc2)cc1)C(=O)N1CC[C@@H]2[C@H]1C(=O)CN2C(=O)c1ccccc1 [Example 39, (3aR,6aS)-N-[(1S)-1-(4-Benzoyl-6-oxo-hexahydro-pyrrolo[3,2-b]pyrrole-1-carbonyl)-3-methyl-butyl]-4-phenoxy-benzamide]
not listed: human cathepsin L
< 5 µM: all other assays above

O=C(N[C@@H](Cc1ccc(O)cc1)C(=O)N1CC[C@@H]2[C@H]1C(=O)CN2C(=O)c1csc2ccccc12)c1cccc(Br)c1 [Example 323, (3aR,6aS)-N-[(1S)-2-[4-(Benzo[b]thiophene-3-carbonyl)-6-oxo-hexahydro-pyrrolo[3,2-b]pyrrole-1-yl]-1-(4-hydroxy-benzyl)-2-oxo-ethyl]-3-bromo-benzamide]
< 5 µM: Bovine cathepsin S | Wild-type cruzipain | human cathepsin B

O=C(N[C@@H](Cc1ccc(O)cc1)C(=O)N1CC[C@@H]2[C@H]1C(=O)CN2C(=O)c1ccccc1)C(c1ccccc1)c1ccccc1 [Example 330, (3aR,6aS)-N-[(1S)-2-(4-Benzoyl-6-oxo-hexahydro-pyrrolo[3,2-b]pyrrol-1-yl)-1-(4-hydroxy-benzyl)-2-oxo-ethyl]-2,2-diphenyl-acetamide]
not listed: human cathepsin L
< 5 µM: all other assays above

CC(C)C[C@H](NC(=O)c1ccc(N)cc1)C(=O)N1CC[C@@H]2[C@H]1C(=O)CN2C(=O)c1cccc(S(C)(=O)=O)c1 [Example 61, (3aR,6aS)-4-Amino-N-{(1S)-1-[4-(3-methanesulfonyl-benzoyl)-6-oxo-hexahydro-pyrrolo[3,2-b]pyrrole-1-carbonyl]-3-methyl-butyl}-benzamide]
< 5 µM: Bovine cathepsin S | Wild-type cruzipain | human cathepsin B

Cc1cccc(C[C@H](NC(=O)C(c2ccccc2)c2ccccc2)C(=O)N2CC[C@@H]3[C@H]2C(=O)CN3C(=O)c2csc3ccccc23)c1 [Example 314]
not listed: human cathepsin L
< 5 µM: all other assays above

CC(C)C[C@H](NC(=O)c1ccc(N(C)C)cc1)C(=O)N1CC[C@@H]2[C@H]1C(=O)CN2C(=O)[C@H](C)NC(=O)OCc1ccccc1 [Example 145, (3aS,6aR)-((1S)-2-{4-[(2S)-2-(4-Dimethylamino-benzoylamino)-4-methyl-pentanoyl]-3-oxo-hexahydro-pyrrolo[3,2-b]pyrrole-1-yl}-1-methyl-2-oxo-ethyl)-carbamic acid benzyl ester]
not listed: human cathepsin B
< 5 µM: all other assays above

COc1cccc(C(=O)N2CC(=O)[C@@H]3[C@H]2CCN3C(=O)[C@H](CC(C)C)NC(=O)c2ccc(N(C)C)cc2)c1 [Example 65, (3aR,6aS)-4-Dimethylamino-N-{(1S)-1-[4-(3-methoxy-benzoyl)-6-oxo-hexahydro-pyrrolo[3,2-b]pyrrole-1-carbonyl]-3-methyl-butyl}-benzamide]
not listed: human cathepsin B
< 5 µM: all other assays above

CC[C@H](C)[C@H](NC(=O)OCc1ccccc1)C(=O)N1CC(=O)[C@@H]2[C@H]1CCN2C(=O)[C@H](CC(C)C)NC(=O)c1ccc(N(C)C)cc1 [Example 161, (3 aS,6aR)-((1S,2S)-1-{4-[(2S)-2-(4-Dimethylamino-benzoylamino)-4-methyl-pentanoyl]-3-oxo-hexahydro-pyrrolo[3,2-b]pyrrole-1-carbonyl}-2-methyl-butyl)-carbamic acid benzyl ester]
not listed: human cathepsin B
< 5 µM: all other assays above

CC(C)C[C@H](NC(=O)c1ccc(N(C)C)cc1)C(=O)N1CC[C@@H]2[C@H]1C(=O)CN2C(=O)c1ccc2[nH]ccc2c1 [Example 98, (3aR,6aS)-4-Dimethylamino-N-{(1S)-1-[4-(1H-indole-5-carbonyl)-6-oxo-hexahydro-pyrrolo[3,2-b]pyrrole-1-carbonyl]-3-methyl-butyl}-benzamide]
not listed: human cathepsin B
< 5 µM: all other assays above

CC(C)C[C@H](NC(=O)c1ccccc1)C(=O)N1CC[C@@H]2[C@H]1C(=O)CN2C(=O)c1ccccc1 [Example 174, (3aR,6aS)-N-[(1S)-1-(4-Benzoyl-6-oxo-hexahydro-pyrrolo[3,2-b]pyrrole-1-carbonyl)-3-methyl-butyl]-benzamide]
not listed: human cathepsin B
< 5 µM: all other assays above

CC(C)C[C@H](NC(=O)c1ccc(N2CCOCC2)cc1)C(=O)N1CC[C@@H]2[C@H]1C(=O)CN2C(=O)c1ccccc1 [Example 85, (3aR,6aS)-N-[(1S)-1-(4-Benzoyl-6-oxo-hexahydro-pyrrolo[3,2-b]pyrrole-1-carbonyl)-3-methyl-butyl]-4-morpholin-4-yl-benzamide]
not listed: human cathepsin B
< 5 µM: all other assays above
